Experimental data taken from patent US12653798B2, “Fixed combination medicine for the control and management of neuropathic pain” (LABORATORIOS SILANES S.A. DE C.V., priority 2020, dated 2026).

Legend:
[1] = in vivo; cited from earlier work
[2] = Dissolution profile tests; format: physicochemical

| SMILES | AUC [1] | Bioavailability [1] | Cmax [1] | t1/2 [1] | tmax [1] | % dissolved ([2]; t 0 min) | % dissolved ([2]; t 10 min) | % dissolved ([2]; t 60 min) |
| --- | --- | --- | --- | --- | --- | --- | --- | --- |
| O=C(O)Cc1ccccc1Nc1c(Cl)cccc1Cl [Diclofenac] | 4.4 ± 0.08 μ · h/mL | 50-60% | 100 to 2200 ng/mL | 1.0 to 2.0 h | 1.98 h | – | – | – |
| CC(C)Cc1ccc(C(C)C(=O)O)cc1 (centres unmarked) [Ibuprofen] | 70 μ · h/mL | 80% | 20000 ng/mL | – | 2 h | – | – | – |
| O=C(c1ccccc1)c1ccc2n1CCC2C(=O)O (centres unmarked) [Ketorolac] | 4.81 μ · h/mL | 80% | 5420 ng/mL | 3.0 to 6.0 h | 0.33 to 1.0 h | – | – | – |
| Cc1cnc(NC(=O)C2=C(O)c3ccccc3S(=O)(=O)N2C)s1 [Meloxicam] | 28.8 μ · h/mL | – | 1620 ± 200 ng/mL | – | 3.0 to 6.0 h | – | – | – |
| Cc1ncc(CO)c(CO)c1O.Cl [pyridoxine hydrochloride] | – | – | – | – | – | 0.00% | 95.38% | 90.54% |
